Tested on: popliteal lymph node
Test: Localization in lymph nodes by fluorescence microscopy on frozen sections
Assay type: in vivo
Details: guinea pig popliteal lymph node; four hours after interstitial administration; formulation 5 mol % of dye 8/95 mol % Gd complex; untreated animals no fluorescence
Procedure: The localization of the formulations according to the invention in lymph nodes was studied by fluorescence microscopy on frozen sections of the lymph nodes. In this respect, the lymph nodes were prepared after the lymphography and deep-frozen at −80° C. Sections with a 5 μm thickness were produced on a freezing microtome. The evaluation was carried out on a Zeiss Axiovert 135-fluorescence microscope, which was equipped with a Cy 7-(excitation filter HQ710/70 nm, emission filter 810/90 nm, beam splitter 750 nm LP). From all the preparations, white light and fluorescence images were recorded with a CCD camera (Princeton Instruments RTE/CCD-576) and stored digitally.
Images of a cryosection from a popliteal lymph node of an untreated guinea pig in bright field (3c) and in near-infrared-fluorescence (3d) are shown for comparison.

SMILES: CC1(C)C(=CC=CC=CC=CC2=[N+](CCCCS(=O)(=O)[O-])c3ccc(C(=O)N(CCOCCC(F)(F)C(F)(F)C(F)(F)C(F)(F)C(F)(F)C(F)(F)C(F)(F)C(F)(F)F)CC(O)CO)cc3C2(C)C)N(CCCCS(=O)(=O)[O-])c2ccccc21.[Na+] (stereo not shown) [Dye 10, 5-{N-[2-(3,3,4,4,5,5,6,6,7,7,8,8,9,9,10,10,10-heptadecafluorodecyloxy)ethyl]-N-(2,3-dihydroxypropyl)aminocarbonyl}-2-{7-[1,3-dihydro-3,3-dimethyl-1-(4-sulfobutyl)-2H-indol-2-ylidene]-1,3,5-heptatrienyl}-3,3-dimethyl-1-(4-sulfobutyl)-3H-indolium, internal salt, sodium salt]
- near-infrared fluorescence of lymph node frozen sections: pronounced fluorescence
